Data published in PubChem BioAssay (NCI).
Where “and” joins values, the source holds several entries; their conditions need not be identical. Equal entries are not always repeated.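 Protocol summary: plate cells (96-well), add compound at 5 concentrations, incubate 48 h, interpolate endpoints linearly. GI50 = concentration required for 50% inhibition of growth. The concentration for full growth arrest is given as TGI.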

Key:
Test in all cases: growth of human tumour cells (NCI), 48 h
[1] = test system: OVCAR-4 ovarian
[2] = test system: SN12C renal
[3] = test system: CCRF-CEM leukemia
[4] = test system: OVCAR-5 ovarian
[5] = test system: HL-60(TB) leukemia
[6] = test system: RXF 393 renal
[7] = test system: OVCAR-3 ovarian
[8] = test system: SNB-19 CNS
[9] = test system: UO-31 renal
[10] = test system: HCT-116 colon

S=C(Nc1ccccc1)Nc1[nH]c(=S)sc1-c1nc2ccccc2[nH]1
TGI [1]: 81.2 µM | TGI [2]: > 100 µM | TGI [3]: > 100 µM | TGI [4]: > 100 µM | TGI [5]: > 100 µM | TGI [6]: > 100 µM | TGI [7]: > 100 µM | TGI [8]: > 100 µM | TGI [9]: > 100 µM

CC1CCC(O)C(C(O)CC2CC(=O)N(C)C(=O)C2)C1 (centres undefined)
TGI [1]: > 100 µM | TGI [2]: > 100 µM | TGI [3]: > 100 µM | TGI [4]: > 100 µM | TGI [10]: > 100 µM | TGI [5]: > 100 µM | TGI [6]: > 100 µM | TGI [7]: > 100 µM | TGI [8]: > 100 µM | TGI [9]: > 100 µM

Cc1nn(-c2ccccc2)c2c1C1C(=C(c3ccc(Cl)cc3)N2)C(=O)Nc2ccccc21 (centres undefined)
GI50 [1]: 5.33 µM | TGI [1]: > 100 µM | GI50 [2]: 4.96 µM | TGI [2]: 32.2 µM | GI50 [3]: 2.66 µM | TGI [3]: 8.67 µM | GI50 [4]: 2.27 µM | TGI [4]: 7.68 µM | GI50 [10]: 3.55 µM | TGI [10]: 14.4 µM | GI50 [5]: 2.25 µM | TGI [5]: 5.25 µM | GI50 [6]: 2.19 µM | TGI [6]: 6.7 µM | GI50 [7]: 4.39 µM | TGI [7]: 20.3 µM | GI50 [8]: 5.28 µM | TGI [8]: > 100 µM | GI50 [9]: 2.86 µM | TGI [9]: 30.3 µM

C[C@@H](NC(=O)Cc1cc(F)cc(F)c1)C(=O)N[C@@]1(C)N=C(c2ccccc2)c2ccccc2N(C)C1=O
GI50 [1]: > 100 µM | TGI [1]: > 100 µM | GI50 [2]: 32 µM | TGI [2]: 97.5 µM | GI50 [3]: 24.6 µM | TGI [3]: > 100 µM | GI50 [4]: > 83.5 µM | TGI [4]: > 100 µM | GI50 [10]: 32.2 µM | TGI [10]: > 100 µM | GI50 [5]: 10.6 µM | TGI [5]: > 55.4 µM | GI50 [6]: 30.7 µM | TGI [6]: > 100 µM | GI50 [7]: 30 µM | TGI [7]: > 100 µM | GI50 [8]: > 100 µM | TGI [8]: > 100 µM | GI50 [9]: 30.5 µM | TGI [9]: > 100 µM

N#CC1c2ccccc2-c2ccccc2N1C(=O)c1ccccc1 (centres undefined)
GI50 [1]: 3.29 µM | TGI [1]: > 72.3 µM | GI50 [2]: 3.86 µM | TGI [2]: > 92.2 µM | GI50 [3]: 2.17 µM | TGI [3]: > 36.3 µM | GI50 [4]: 5.37 µM | TGI [4]: > 100 µM | GI50 [10]: 1.74 µM | TGI [10]: 9.22 µM | GI50 [5]: 0.337 µM | GI50 [6]: 0.913 µM | TGI [6]: 13.2 µM | GI50 [7]: 0.748 µM | TGI [7]: 2.47 µM | GI50 [8]: 4.12 µM | TGI [8]: > 100 µM | GI50 [9]: 3.63 µM | TGI [9]: > 59.4 µM

COc1cc2c3c(c1OC)-c1ccccc1C(C(OC(C)=O)c1ccccc1)C3N(C)CC2 (centres undefined)
TGI [1]: > 100 µM | TGI [2]: > 100 µM | TGI [3]: > 100 µM | TGI [4]: > 100 µM | TGI [10]: > 100 µM | TGI [5]: > 100 µM | TGI [6]: > 100 µM | TGI [7]: > 100 µM | TGI [8]: > 100 µM | TGI [9]: > 100 µM

Cn1c(=O)n(-c2ccc(C(C)(C)C#N)cc2)c2c3cc(-c4cnc5ccccc5c4)ccc3ncc21
GI50 [1]: 0.0162 µM and 0.00409 µM and 0.01 µM | GI50 [2]: 0.0101 µM and 0.00461 µM and < 0.01 µM | TGI [2]: > 100 µM | GI50 [3]: < 0.01 µM and 0.00575 µM and < 0.0109 µM | TGI [3]: > 100 µM | GI50 [4]: 0.0213 µM and 0.00759 µM and 0.0159 µM | TGI [4]: > 100 µM | GI50 [10]: 0.0312 µM and 0.00938 µM and 0.0298 µM | TGI [10]: > 100 µM | GI50 [5]: 0.0701 µM and 0.0705 µM and 0.0783 µM | TGI [5]: 2.4 µM and > 5.01 µM | GI50 [6]: < 0.01 µM and 0.00351 µM | TGI [6]: 0.0605 µM and 0.00781 µM and 0.0181 µM | GI50 [7]: < 0.01 µM and 0.00609 µM and 0.0101 µM | GI50 [8]: 0.012 µM and 0.00605 µM and 0.0102 µM | TGI [8]: > 100 µM | GI50 [9]: < 0.01 µM and 0.00361 µM | TGI [9]: 0.0749 µM

O=C1c2cccnc2C(=O)c2c1c(C(=O)OCCCN1CCOCC1)c1ccccn21
GI50 [1]: 0.94 µM | TGI [1]: 3.99 µM | GI50 [2]: < 0.01 µM | TGI [2]: 1.82 µM | GI50 [3]: 0.0493 µM | GI50 [4]: 0.0794 µM | TGI [4]: 4.73 µM | GI50 [10]: < 0.01 µM | TGI [10]: 0.184 µM | GI50 [5]: 0.0361 µM | TGI [5]: 2.76 µM | GI50 [6]: < 0.01 µM | TGI [6]: 0.0235 µM | GI50 [7]: 0.0201 µM | TGI [7]: 0.528 µM | GI50 [8]: < 0.01 µM | TGI [8]: 4.13 µM

CCOC(=O)c1[nH]c2c(c1C)-c1[nH]c(=O)c(S(=O)(=O)c3ccccc3)cc1SC2
GI50 [1]: 28.8 µM | TGI [1]: 86.5 µM | GI50 [2]: 93.6 µM | TGI [2]: > 100 µM | GI50 [3]: 57.8 µM | TGI [3]: > 100 µM | GI50 [4]: > 100 µM | TGI [4]: > 100 µM | GI50 [10]: 36.1 µM | TGI [10]: > 100 µM | GI50 [5]: 23.2 µM | TGI [5]: > 100 µM | GI50 [6]: 28.4 µM | TGI [6]: > 100 µM | GI50 [7]: 31.6 µM | TGI [7]: > 100 µM | GI50 [8]: 81.1 µM | TGI [8]: > 100 µM | GI50 [9]: > 100 µM | TGI [9]: > 100 µM

O=C(O)c1cc(Cl)cc(NC(=O)C(Cl)Cl)c1Cl
TGI [1]: > 100 µM | TGI [2]: > 100 µM | TGI [3]: > 100 µM | TGI [10]: > 100 µM | TGI [5]: > 100 µM | TGI [6]: > 100 µM | TGI [7]: > 100 µM | TGI [8]: > 100 µM | TGI [9]: > 100 µM

CCN(CC)CCC(=O)Nc1ccc(Cn2nnc3c2C(=O)c2nnn(Cc4ccc(NC(=O)CCN(CC)CC)cc4)c2C3=O)cc1
GI50 [1]: 0.133 µM | TGI [1]: 0.263 µM | GI50 [2]: 0.184 µM | TGI [2]: 0.385 µM | GI50 [3]: 0.24 µM | GI50 [4]: 0.994 µM | TGI [4]: 3.34 µM | GI50 [10]: 0.283 µM | TGI [10]: 1.12 µM | GI50 [5]: 0.228 µM | TGI [5]: 0.628 µM | GI50 [6]: 3.6 µM | TGI [6]: 15.2 µM | GI50 [7]: 0.265 µM | TGI [7]: 0.778 µM | GI50 [8]: 0.186 µM | TGI [8]: 0.373 µM | GI50 [9]: > 41.1 µM | TGI [9]: > 61.8 µM

COc1ccc2c(c1O)[C@@]13C=C(O)C(=O)C=C1[C@@H](C2)N(C)CC3
TGI [1]: > 100 µM | TGI [2]: > 100 µM | TGI [3]: > 100 µM | TGI [4]: > 100 µM | TGI [10]: > 100 µM | TGI [5]: > 100 µM | TGI [6]: > 100 µM | TGI [7]: > 100 µM | TGI [8]: > 100 µM | TGI [9]: > 100 µM

c1ccc2c(c1)nc(NCCN1CCNCC1)c1c3ccccc3[nH]c21
GI50 [1]: 0.379 µM | TGI [1]: 2.24 µM | GI50 [2]: 0.19 µM | TGI [2]: 1.18 µM | GI50 [3]: 0.086 µM | TGI [3]: 1.82 µM | GI50 [4]: 0.477 µM | TGI [4]: 3.15 µM | GI50 [10]: 0.165 µM | TGI [10]: 1.42 µM | GI50 [5]: 0.308 µM | TGI [5]: 1.36 µM | GI50 [6]: 0.438 µM | TGI [6]: 2.04 µM | GI50 [7]: 0.413 µM | TGI [7]: 2.51 µM | GI50 [8]: 0.381 µM | TGI [8]: 3.15 µM | GI50 [9]: 0.567 µM | TGI [9]: 2.05 µM

CC1Cc2c(N(C)C)ncnc2N(C)c2ccc(Cl)cc21 (centres undefined)
GI50 [1]: 9.76 µM | TGI [1]: > 100 µM | GI50 [2]: 10.2 µM | TGI [2]: 37.1 µM | GI50 [3]: 2.92 µM | TGI [3]: 18 µM | GI50 [10]: 3.48 µM | TGI [10]: 23.6 µM | GI50 [5]: 2.81 µM | TGI [5]: 15.8 µM | GI50 [6]: 2.03 µM | TGI [6]: 6.98 µM | GI50 [7]: 2.51 µM | TGI [7]: 8.88 µM | GI50 [8]: 5.81 µM | TGI [8]: > 100 µM | GI50 [9]: 4.4 µM | TGI [9]: 72.4 µM
